PMC11053687, “Synthesis and Pharmacological Characterization of New Photocaged Agonists for Histamine H3 and H4 Receptors” (Pharmaceuticals, 2024)
Converted amounts (≈) assume the structure as drawn. Like-named read-outs stand apart in the source and are kept apart here.

Columns and labels:
human H4R = biological target: T1, human H4R (Homo sapiens, UniProt Q9H3N8); assay: [3H]histamine competition binding, membranes of HEK293T cells transiently expressing H4R
T1 construct: expressed in transfected cells; host or cells: HEK293T (transient, PEI); membranes
Procedure: (§1) Both GPCRs were transiently expressed in HEK293T cells.
(§2) Membranes were collected from HEK293T cells transiently transfected with H3R or H4R by PEI method. In brief, 2 million HEK293T cells were seeded into a 10 cm dish one day before transfection. The next day, the cells were transfected with 2.5 μg cDNA encoding H3R (GenBank accession number AF140538) or H4R (GenBank accession number AY136745) supplemented with 2.5 μg empty pcDEF3 [45] plasmid using 20 μg PEI. Two days after transfection, the transfected HEK293T cells were detached using ice-cold PBS, and the membrane pellets were subsequently collected by centrifuging at 1932× g at 4 °C for 10 min.
For competition binding assays, the tested compounds were pre-irradiated to reach the uncaged state. […] After drying for 30 min at 55 °C, the radioactivity remaining on the filters was quantified using a Microbeta Wallac Trilux scintillation counter, following the addition of scintillation liquid with a two-hour delay.
All data are shown as mean ± S.D. from three individual experiments performed in triplicate. Figures were generated and data analyzed by Prism 9. […] In FRET-EPAC assays, the ligand-induced cAMP inhibition was quantified by FRET ratios, dividing the FRET signal at 530 nm by the signal at 480 nm. […]

H3R [1] = biological target: T2, H3R (Homo sapiens, UniProt Q9Y5N1); assay: cAMP inhibition by FRET-EPAC biosensor in HEK293-EPAC cells stably expressing H3R; type: cell-based; parameters: expressed in transfected cells; host or cells: HEK293 cells stably expressing EPAC-cAMP FRET biosensor and H3R; conditions: for EC50: inhibition of cAMP induced by 10 nM isoprenaline, FRET after 20 min
Procedure: H3R primarily couples to Gαi protein, which upon activation causes a decrease in intracellular cAMP levels via the inhibition of adenylate cyclase. Therefore, the HEK-EPAC cells were pre-treated with 10 nM of the beta2 adrenergic receptor (β2AR) agonist isoprenaline before H3R stimulation to enhance the basal intracellular cAMP levels via β2AR-Gαs activation. As anticipated, the H3R selective agonist immepip reduced the isoprenaline-induced cAMP accumulation, as detected by an increased FRET (fluorescence resonance energy transfer) signal in the EPAC (exchange protein directly activated by cAMP) biosensor (Figure 3A).
HEK293T cells (ATTC, CRL-1573) were cultured in DMEM supplemented with 10% FBS and 1% P/S in a humidified incubator at 37 °C with 5% CO2. The HEK293 cell line stably expressing an EPAC-cAMP FRET biosensor was kindly provided by Dr. M. Zimmermann (Interax Biotech, Basal, Switzerland). HEK293-EPAC cells stably co-expressing the H3R (GenBank accession number NM_007232.3) were generated as previously described.
EPAC-H3R cells were seeded into black 96-well plates with 50,000 cells per well one day before the experiment. The next day, the culture medium was replaced with HBSS. Subsequently, 10 nM isoprenaline (dissolved in HBSS supplemented with 20 mM thiourea) was added for 10 min incubation to elevate basal cAMP levels. Fluorescence resonance energy transfer (FRET) measurements were recorded by CLARIOstar plate reader in real-time or at 20 min after ligand stimulation.
(§3) All data are shown as mean ± S.D. from three individual experiments performed in triplicate. Figures were generated and data analyzed by Prism 9. In radioligand binding assays, the competition binding curves were fitted by ‘one-site—Fit Ki’ to obtain the equilibrium dissociation constants of unlabeled ligands (Ki) by Cheng-Prusoff equation [46]. In FRET-EPAC assays, the ligand-induced cAMP inhibition was quantified by FRET ratios, dividing the FRET signal at 530 nm by the signal at 480 nm. The response was represented as ΔFRET ratios, obtained by the analysis of ‘Fractional difference: (Value—Baseline)/Baseline’. Then the concentration–response curves were fitted using the model: ‘log(agonist) vs. response (three parameters)’ to obtain potency (pEC50).
Figure 3 Optical modulation of VUF25657-induced cAMP inhibition in EPAC-H3R cells. Real time modulation of isoprenaline-induced cAMP acumination in HEK-EPAC cells by 1 μM immepip (A). Modulation of isoprenaline-induced cAMP acumination in HEK-EPAC cells by increasing concentrations of VUF25657 (B). HEK-EPAC cells stably expressing H3R were pre-stimulated with 10 nM isoprenaline for 10 min before ligand addition. The FRET signal of the EPAC-sensor was measured after 20 min treatment of indicated ligands. VUF25657 was either kept in dark or pre-irradiated at 560 nm for 3 min to release the BODIPY cage. Data are mean ± S.D. from four independent experiments performed, each in triplicate.

H3R [2] = biological target: T2, H3R; assay: [3H]NAMH competition binding, membranes of HEK293T cells transiently expressing H3R; parameters: expressed in transfected cells; host or cells: HEK293T (transient, PEI); membranes
Procedure: as §1, §2
For competition binding assays, the tested compounds were pre-irradiated to reach the uncaged state. In brief, 0.3 mM stock of photocaged ligand (dissolved in DMSO) was divided into two samples, one of which was subsequently diluted in Tris-HCl buffer (50 mM, pH 7.4) to 3 μM and then irradiated by 560 nm to reach the uncaged state, as confirmed by LC–MS, and the other sample was kept in dark to retain its caged state. The prepared membrane pellets expressing H3R or H4R were resuspended in Tris-HCl buffer (50 mM, pH 7.4) and disrupted by 5 s sonication to make membrane suspension. Next, all the following handling was performed under near-infrared light. […] Following one hour of incubation with continuous shaking at 225 rpm at 25 °C, the reaction was terminated by transferring the mixture to GF/C filter plates that were pre-soaked with a solution containing 0.5% PEI and washed with cold Tris-HCl buffer. After drying for 30 min at 55 °C, the radioactivity remaining on the filters was quantified using a Microbeta Wallac Trilux scintillation counter, following the addition of scintillation liquid with a two-hour delay.
as §3
Figure 2 Displacement binding curves of parent, caged, and uncaged ligands for H3R (A) and H4R (B). […] Caged ligands were either kept in dark or pre-irradiated at 560 nm for 3 min for VUF25657 and 5 min for VUF25678 to achieve the uncaged state. Data shown are mean ± S.D. from three or four independent experiments, each performed in triplicate.

[3] = UV-Vis absorption in Tris-HCl buffer; type: physicochemical; conditions: Tris-HCl buffer (50 mM, pH 7.4)
Procedure: Next, the photochemical properties of the caged VUF25657 and VUF25678 were investigated. […] Based on the photochemical stability results in Figure S2, photo characterizations of VUF25657 and VUF25678 were performed under red LED light. Due to the low absorbance of immepip and 4-methylhistamine at 230 and 254 nm, a quantitative analysis method based on mass (MS) detection was employed. First, calibration curves of monitored compounds with the corresponding reference compound of the same molecular weight were built (Figure S3). Then, after illumination, the reference compounds were added to LCMS samples as internal standards. Based on the MS signal areas, the concentrations of caged compounds and parent compounds could be monitored. In Tris-HCl buffer (50 mM, pH 7.4), the absorption maximum (λmax) was determined to be 551 nm for VUF25657 (Figure 1A) and 546 nm for VUF25678 (Figure S4A). […] After 180 s of illumination, the concentration of immepip reached 0.92 μM, amounting to 29% uncaging efficiency. […]
Figure 1 Photo-uncaging followed by UV–Vis (ultraviolet-visible) and LC–MS analysis. (A) VUF25657 (3.2 μM) was illuminated under 560 nm in Tris-HCl buffer (50 mM, pH 7.4)/1% DMSO at room temperature and a UV–Vis spectrum was measured at intervals. […]
measured at intervals; (B) […] (3.2 μM) was illuminated under green LED light in Tris-HCl buffer (50 […]

[4] = Nephelometry (aqueous solubility); type: physicochemical; conditions: 50 mM Tris-HCl buffer with 1% DMSO, pH 7.4, aqueous buffer, kinetic from dmso stock, in the dark, read-out: aqueous solubility (limit)
[5] = Photo-uncaging at 560 nm followed by LC-MS with internal standard; type: physicochemical; conditions: VUF25657 3.2 μM in Tris-HCl buffer
Procedure: Next, the photochemical properties of the caged VUF25657 and VUF25678 were investigated. […] Based on the photochemical stability results in Figure S2, photo characterizations of VUF25657 and VUF25678 were performed under red LED light. Due to the low absorbance of immepip and 4-methylhistamine at 230 and 254 nm, a quantitative analysis method based on mass (MS) detection was employed. First, calibration curves of monitored compounds with the corresponding reference compound of the same molecular weight were built (Figure S3). Then, after illumination, the reference compounds were added to LCMS samples as internal standards. Based on the MS signal areas, the concentrations of caged compounds and parent compounds could be monitored. In Tris-HCl buffer (50 mM, pH 7.4), the absorption maximum (λmax) was determined to be 551 nm for VUF25657 (Figure 1A) and 546 nm for VUF25678 (Figure S4A). […] After 180 s of illumination, the concentration of immepip reached 0.92 μM, amounting to 29% uncaging efficiency. Further illumination led to a decreased immepip concentration (for example, 0.53 μM at 20 min). One potential explanation for this could be the reaction of immepip with side products or intermediates formed during the uncaging process.
Figure 1 Photo-uncaging followed by UV–Vis (ultraviolet-visible) and LC–MS analysis. (A) VUF25657 (3.2 μM) was illuminated under 560 nm in Tris-HCl buffer (50 mM, pH 7.4)/1% DMSO at room temperature and a UV–Vis spectrum was measured at intervals. Only the 350–750 nm region is shown; (B) VUF25657 (3.2 μM) was illuminated under green LED light in Tris-HCl buffer (50 mM, pH 7.4)/1% DMSO at 37 °C and LC–MS analysis was performed at different time points using an internal standard.

H3R [6] = biological target: T2, H3R; parameters: expressed in transfected cells; host or cells: HEK293 cells stably expressing EPAC-cAMP FRET biosensor and H3R; method as in PMID 30249614; conditions: saturation binding of the radioligand to H3R; cited from earlier work
[7] = after 180 s of illumination at 560 nm

T2 sequence (Q9Y5N1 whole entry): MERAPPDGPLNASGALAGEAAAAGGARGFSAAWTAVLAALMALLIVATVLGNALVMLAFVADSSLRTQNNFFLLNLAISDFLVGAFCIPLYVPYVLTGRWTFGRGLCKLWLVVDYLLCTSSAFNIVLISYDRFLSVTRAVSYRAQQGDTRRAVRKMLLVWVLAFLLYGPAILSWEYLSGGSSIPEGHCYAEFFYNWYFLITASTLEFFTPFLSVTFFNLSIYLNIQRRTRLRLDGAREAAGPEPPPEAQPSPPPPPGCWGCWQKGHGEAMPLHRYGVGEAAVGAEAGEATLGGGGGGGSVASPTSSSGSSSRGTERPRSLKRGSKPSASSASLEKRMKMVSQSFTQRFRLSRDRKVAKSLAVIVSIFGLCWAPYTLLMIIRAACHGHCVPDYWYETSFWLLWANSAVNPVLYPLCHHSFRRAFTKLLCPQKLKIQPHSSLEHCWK
T1 sequence (Q9H3N8 whole entry): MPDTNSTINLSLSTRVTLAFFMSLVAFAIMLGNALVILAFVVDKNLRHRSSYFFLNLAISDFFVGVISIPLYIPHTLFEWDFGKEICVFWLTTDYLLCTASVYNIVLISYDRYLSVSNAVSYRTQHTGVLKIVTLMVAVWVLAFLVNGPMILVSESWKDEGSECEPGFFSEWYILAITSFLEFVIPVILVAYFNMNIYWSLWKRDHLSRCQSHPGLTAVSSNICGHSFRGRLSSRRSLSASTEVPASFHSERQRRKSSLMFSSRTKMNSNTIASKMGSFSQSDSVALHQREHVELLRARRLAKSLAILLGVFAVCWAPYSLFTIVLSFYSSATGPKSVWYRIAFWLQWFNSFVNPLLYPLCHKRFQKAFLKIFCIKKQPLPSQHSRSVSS

Cc1[nH]cnc1CCN [4-methylhistamine, 2-(5-methyl-1H-imidazol-4-yl)ethan-1-amine, reference compound]
pKi +560 nm (human H4R; H4R, displacement of 4 nM [3H]histamine, pre-irradiated at 560 nm (5 min for VUF25678)): 7.2 ± 0.1 (3)

CCC1=C(C)C2=C(COC(=O)N3CCC(Cc4c[nH]cn4)CC3)c3c(C)c(CC)c(C)n3[B-](F)(F)[N+]2=C1C [VUF25657, (2,8-Diethyl-5,5-difluoro-1,3,7,9-tetramethyl-5H-4λ^4,5λ^4-dipyrrolo [1,2-c:2′,1′-f][1,3,2]diazaborinin-10-yl)methyl 4-((1H-imidazol-4-yl)methyl)piperidine-1-carboxylate]
decrease in potency of cAMP inhibition compared with immepip (H3R [1]; caged state (dark) vs parent immepip, listed as 5 (VUF25657)): > 100 fold | EC50 (H3R [1]; kept in dark, read-out: pEC50 In Dark (converted)): 10 nM | higher potency of cAMP inhibition after irradiation than caged state (H3R [1]; irradiation at 560 nm vs dark): 20 fold | melting point: 148.7 to 150.7 °C | Ki (H3R [2]; H3R, displacement of 2 nM [3H]NAMH, compound kept in dark (caged state), read-out: pKi In Dark (converted)): 50.1 nM | decrease in affinity for H3R compared with immepip (H3R [2]; caged state (dark) vs parent immepip): 125 fold | increase in H3R affinity after illumination in comparison to caged state (H3R [2]; illumination at 560 nm vs dark): 12 fold | absorption maximum (λmax) [3]: 551 nm | solubility [4]: 3.2 µM (≈ 1.68 µg/mL) | concentration of immepip released [5, 7]: 0.92 µM | uncaging efficiency [5, 7]: 29% | concentration of immepip released ([5]; illumination at 560 nm, at 20 min): 0.53 µM

CCC1=C(C)C2=C(COC(=O)NCCc3nc[nH]c3C)c3c(C)c(CC)c(C)n3[B-](F)(F)[N+]2=C1C [VUF25678, (2,8-Diethyl-5,5-difluoro-1,3,7,9-tetramethyl-5H-4λ^4,5λ^4-dipyrrolo [1,2-c:2′,1′-f][1,3,2]diazaborinin-10-yl)methyl (2-(5-methyl-1H-imidazol-4-yl)ethyl)carbamate]
melting point: 108.8 to 116.3 °C | absorption maximum (λmax) [3]: 546 nm | reduction in affinity for H4R on caging (human H4R; caged compound vs parent 4-methylhistamine): 10–100 fold | solubility [4]: 3.2 µM (≈ 1.55 µg/mL)

CNCCc1cnc[nH]1 [[^3H]NAMH, N-α-[methyl-^3H] histamine]
Kd (H3R [6]): 1.37 nM

c1nc(CC2CCNCC2)c[nH]1 [immepip, 4-((1H-imidazol-4-yl)methyl)piperidine, reference compound]
EC50 (H3R [1]; pEC50 +560 nm, pre-irradiated at 560 nm for 3 min): 0.0631 nM | EC50 (H3R [1]; pEC50 In Dark, kept in dark): 0.0316 nM | pKi In Dark (H3R [2]; H3R, displacement of 2 nM [3H]NAMH, compound kept in dark (caged state)): 9.4 ± 0.2 (4) | pKi +560 nm (H3R [2]; H3R, displacement of 2 nM [3H]NAMH, pre-irradiated at 560 nm (3 min for VUF25657)): 9.4 ± 0.3 (4)
